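Where inhibition never reached the appropriate level, the endpoint shown equals the highest concentration tested. Otherwise, values were interpolated linearly from a five-concentration, 48-hour dose response in 96-well plates. GI50: concentration for 50% inhibition of growth. TGI marks complete inhibition of growth.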
Experiments:
Experiment in all cases: DTP human tumour cell line panel, 48 h
SK-MEL-5 melanoma = tested on: SK-MEL-5 melanoma
HCT-15 colon = tested on: HCT-15 colon
COLO 205 colon = tested on: COLO 205 colon
HOP-62 NSCLC = tested on: HOP-62 NSCLC
SF-539 CNS = tested on: SF-539 CNS
NCI-H226 lung = tested on: NCI-H226 lung
SR leukemia = tested on: SR leukemia
OVCAR-4 ovarian = tested on: OVCAR-4 ovarian
A498 renal = tested on: A498 renal
NCI-H460 lung = tested on: NCI-H460 lung
MALME-3M melanoma = tested on: MALME-3M melanoma
SF-268 CNS = tested on: SF-268 CNS
M14 melanoma = tested on: M14 melanoma
T-47D breast = tested on: T-47D breast
HS 578T breast = tested on: HS 578T breast
HCC-2998 colon = tested on: HCC-2998 colon
MCF7 breast = tested on: MCF7 breast
A549 NSCLC = tested on: A549 NSCLC
HL-60(TB) leukemia = tested on: HL-60(TB) leukemia
OVCAR-5 ovarian = tested on: OVCAR-5 ovarian
HCT-116 colon = tested on: HCT-116 colon
CCRF-CEM leukemia = tested on: CCRF-CEM leukemia
NCI-H23 lung = tested on: NCI-H23 lung
SK-MEL-28 melanoma = tested on: SK-MEL-28 melanoma
RXF 393 renal = tested on: RXF 393 renal
HT29 colon = tested on: HT29 colon
KM12 colon = tested on: KM12 colon
RPMI-8226 leukemia = tested on: RPMI-8226 leukemia
OVCAR-3 ovarian = tested on: OVCAR-3 ovarian

`CC1(C)C(N(O)C(=O)Nc2ccc(Cl)cc2)N(c2ccc(Cl)cc2)C(=O)N1CC(=O)N/N=C/C=C/c1ccc([N+](=O)[O-])o1` (configuration not stated) was tested, and the TGI (SK-MEL-5 melanoma) was 2.76 µM, the GI50 (HCT-15 colon) was 2.49 µM and the TGI (HCT-15 colon) was > 100 µM. It also gave a GI50 (COLO 205 colon) of 1.33 µM, a TGI (COLO 205 colon) of 2.85 µM and a GI50 (HOP-62 NSCLC) of 2.76 µM. The TGI (HOP-62 NSCLC) was 6.2 µM, the GI50 (SF-539 CNS) was 1.81 µM and the TGI (SF-539 CNS) was 3.81 µM. It also gave a GI50 (NCI-H226 lung) of 1.99 µM, a TGI (NCI-H226 lung) of 4.88 µM and a GI50 (SR leukemia) of 0.273 µM. The TGI (SR leukemia) was 1.95 µM, the GI50 (OVCAR-4 ovarian) was 3.87 µM and the TGI (OVCAR-4 ovarian) was > 100 µM. The GI50 (A498 renal) was 1.73 µM, the TGI (A498 renal) was 4.12 µM and the GI50 (NCI-H460 lung) was 2.27 µM. It also gave a TGI (NCI-H460 lung) of 6.39 µM, a GI50 (MALME-3M melanoma) of 1.29 µM and a TGI (MALME-3M melanoma) of 3.08 µM. For the same molecule, the GI50 (SF-268 CNS) was 3.8 µM, the TGI (SF-268 CNS) was > 59 µM and the GI50 (M14 melanoma) was 1.88 µM. The TGI (M14 melanoma) was 7.08 µM, the GI50 (T-47D breast) was 3.47 µM and the TGI (T-47D breast) was > 70.1 µM. For the same molecule, the GI50 (HS 578T breast) was 3 µM, the TGI (HS 578T breast) was > 84.4 µM and the GI50 (HCC-2998 colon) was 1.7 µM. The TGI (HCC-2998 colon) was 3.43 µM, the GI50 (MCF7 breast) was 1.01 µM and the TGI (MCF7 breast) was > 26.7 µM. For the same molecule, the GI50 (A549 NSCLC) was 3.11 µM, the TGI (A549 NSCLC) was > 28.5 µM and the GI50 (HL-60(TB) leukemia) was 1.09 µM. For the same molecule, the TGI (HL-60(TB) leukemia) was 4 µM, the GI50 (OVCAR-5 ovarian) was 3.81 µM and the TGI (OVCAR-5 ovarian) was 14 µM. For the same molecule, the GI50 (HCT-116 colon) was 0.731 µM, the TGI (HCT-116 colon) was 2.52 µM and the GI50 (CCRF-CEM leukemia) was 0.604 µM. The TGI (CCRF-CEM leukemia) was 2.2 µM, the GI50 (NCI-H23 lung) was 2.13 µM and the TGI (NCI-H23 lung) was 5.56 µM. For the same molecule, the GI50 (SK-MEL-28 melanoma) was 1.61 µM, the TGI (SK-MEL-28 melanoma) was 3.16 µM and the GI50 (RXF 393 renal) was 0.337 µM. The TGI (RXF 393 renal) was 1.64 µM, the GI50 (HT29 colon) was 1.92 µM and the TGI (HT29 colon) was > 22.6 µM. The GI50 (KM12 colon) was 1.71 µM, the TGI (KM12 colon) was 3.76 µM and the GI50 (RPMI-8226 leukemia) was 0.327 µM. It also gave a TGI (RPMI-8226 leukemia) of 1.63 µM, a GI50 (OVCAR-3 ovarian) of 1.49 µM and a TGI (OVCAR-3 ovarian) of 3.96 µM.

From PubChem BioAssay (NCI)
